Experimental data from PubChem BioAssay (NCI).
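In this assay, cells in 96-well plates receive the compound at five concentrations for 48 hours. Endpoints are linearly interpolated between the surrounding concentrations. The concentration for 50% growth inhibition is given as GI50. TGI marks complete inhibition of growth.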

How the values were obtained:
Test in all cases: NCI-60 cell line screen, 48 h
786-0 renal = tested on: 786-0 renal
A498 renal = tested on: A498 renal
A549 NSCLC = tested on: A549 NSCLC
ACHN renal = tested on: ACHN renal
BT-549 breast = tested on: BT-549 breast
CAKI-1 renal = tested on: CAKI-1 renal
CCRF-CEM leukemia = tested on: CCRF-CEM leukemia
COLO 205 colon = tested on: COLO 205 colon
DU-145 prostate = tested on: DU-145 prostate
EKVX NSCLC = tested on: EKVX NSCLC
HCC-2998 colon = tested on: HCC-2998 colon
HCT-116 colon = tested on: HCT-116 colon
HCT-15 colon = tested on: HCT-15 colon
HL-60(TB) leukemia = tested on: HL-60(TB) leukemia
HOP-62 NSCLC = tested on: HOP-62 NSCLC
HOP-92 NSCLC = tested on: HOP-92 NSCLC
HS 578T breast = tested on: HS 578T breast
HT29 colon = tested on: HT29 colon
IGROV1 ovarian = tested on: IGROV1 ovarian
K-562 leukemia = tested on: K-562 leukemia
KM12 colon = tested on: KM12 colon
LOX IMVI melanoma = tested on: LOX IMVI melanoma
MALME-3M melanoma = tested on: MALME-3M melanoma
MCF7 breast = tested on: MCF7 breast
MDA-MB-231 breast = tested on: MDA-MB-231 breast
MDA-MB-435 = tested on: MDA-MB-435
MOLT-4 leukemia = tested on: MOLT-4 leukemia
NCI-H226 lung = tested on: NCI-H226 lung
NCI-H23 lung = tested on: NCI-H23 lung
NCI-H460 lung = tested on: NCI-H460 lung
NCI-H522 lung = tested on: NCI-H522 lung
NCI/ADR-RES ovarian = tested on: NCI/ADR-RES ovarian
OVCAR-3 ovarian = tested on: OVCAR-3 ovarian
OVCAR-4 ovarian = tested on: OVCAR-4 ovarian
OVCAR-5 ovarian = tested on: OVCAR-5 ovarian
OVCAR-8 ovarian = tested on: OVCAR-8 ovarian
PC-3 prostate = tested on: PC-3 prostate
RPMI-8226 leukemia = tested on: RPMI-8226 leukemia
RXF 393 renal = tested on: RXF 393 renal
SF-268 CNS = tested on: SF-268 CNS
SF-295 CNS = tested on: SF-295 CNS
SF-539 CNS = tested on: SF-539 CNS
SK-MEL-2 melanoma = tested on: SK-MEL-2 melanoma
SK-MEL-28 melanoma = tested on: SK-MEL-28 melanoma
SK-MEL-5 melanoma = tested on: SK-MEL-5 melanoma
SK-OV-3 ovarian = tested on: SK-OV-3 ovarian
SN12C renal = tested on: SN12C renal
SNB-19 CNS = tested on: SNB-19 CNS
SNB-75 CNS = tested on: SNB-75 CNS
SR leukemia = tested on: SR leukemia
SW-620 colon = tested on: SW-620 colon
T-47D breast = tested on: T-47D breast
TK-10 renal = tested on: TK-10 renal
U251 CNS = tested on: U251 CNS
UACC-257 melanoma = tested on: UACC-257 melanoma
UACC-62 melanoma = tested on: UACC-62 melanoma
UO-31 renal = tested on: UO-31 renal

SMILES: CC(=O)OC[C@@]12Oc3c(cccc3-c3ccc(O)c4c3O[C@]3(COC(C)=O)C(=C4O)C(=O)C[C@H](C)[C@@H]3OC(C)=O)C(O)=C1C(=O)C[C@H](C)[C@@H]2OC(C)=O
- GI50 (786-0 renal): 33.5 µM
- TGI (786-0 renal): > 100 µM
- GI50 (A498 renal): 3.3 µM
- TGI (A498 renal): 48.4 µM
- GI50 (A549 NSCLC): 4.06 µM
- TGI (A549 NSCLC): > 100 µM
- GI50 (ACHN renal): 30.3 µM
- TGI (ACHN renal): > 100 µM
- GI50 (BT-549 breast): 4.54 µM
- TGI (BT-549 breast): > 100 µM
- GI50 (CAKI-1 renal): 28.6 µM
- TGI (CAKI-1 renal): > 100 µM
- GI50 (CCRF-CEM leukemia): 5.92 µM
- TGI (CCRF-CEM leukemia): > 100 µM
- GI50 (COLO 205 colon): 19.7 µM
- TGI (COLO 205 colon): 48.9 µM
- GI50 (DU-145 prostate): 10.8 µM
- TGI (DU-145 prostate): > 100 µM
- GI50 (EKVX NSCLC): 24.3 µM
- TGI (EKVX NSCLC): > 100 µM
- GI50 (HCC-2998 colon): 6.13 µM
- TGI (HCC-2998 colon): > 100 µM
- GI50 (HCT-116 colon): 28.3 µM
- TGI (HCT-116 colon): > 100 µM
- GI50 (HCT-15 colon): 5.45 µM
- TGI (HCT-15 colon): > 100 µM
- GI50 (HL-60(TB) leukemia): 17.7 µM
- TGI (HL-60(TB) leukemia): 56.6 µM
- GI50 (HOP-62 NSCLC): 4.19 µM
- TGI (HOP-62 NSCLC): > 100 µM
- GI50 (HOP-92 NSCLC): 5 µM
- TGI (HOP-92 NSCLC): 38.5 µM
- GI50 (HS 578T breast): 3.77 µM
- TGI (HS 578T breast): > 100 µM
- GI50 (HT29 colon): 7.87 µM
- TGI (HT29 colon): > 100 µM
- GI50 (IGROV1 ovarian): 7.12 µM
- TGI (IGROV1 ovarian): > 100 µM
- GI50 (K-562 leukemia): 30.5 µM
- TGI (K-562 leukemia): > 100 µM
- GI50 (KM12 colon): 27.5 µM
- TGI (KM12 colon): > 100 µM
- GI50 (LOX IMVI melanoma): 3.53 µM
- TGI (LOX IMVI melanoma): 12.9 µM
- GI50 (MALME-3M melanoma): 6.88 µM
- TGI (MALME-3M melanoma): 56.5 µM
- GI50 (MCF7 breast): 26.1 µM
- TGI (MCF7 breast): > 100 µM
- GI50 (MDA-MB-231 breast): 25.5 µM
- TGI (MDA-MB-231 breast): > 100 µM
- GI50 (MDA-MB-435): 5.3 µM
- TGI (MDA-MB-435): > 100 µM
- GI50 (MOLT-4 leukemia): 10.9 µM
- TGI (MOLT-4 leukemia): > 100 µM
- GI50 (NCI-H226 lung): 20.2 µM
- TGI (NCI-H226 lung): 63.5 µM
- GI50 (NCI-H23 lung): 10.6 µM
- TGI (NCI-H23 lung): > 100 µM
- GI50 (NCI-H460 lung): 4.83 µM
- TGI (NCI-H460 lung): > 100 µM
- GI50 (NCI-H522 lung): 7.97 µM
- TGI (NCI-H522 lung): 46.4 µM
- GI50 (NCI/ADR-RES ovarian): 32.7 µM
- TGI (NCI/ADR-RES ovarian): > 100 µM
- GI50 (OVCAR-3 ovarian): 13.9 µM
- TGI (OVCAR-3 ovarian): > 100 µM
- GI50 (OVCAR-4 ovarian): 29.4 µM
- TGI (OVCAR-4 ovarian): > 100 µM
- GI50 (OVCAR-5 ovarian): 29.3 µM
- TGI (OVCAR-5 ovarian): > 100 µM
- GI50 (OVCAR-8 ovarian): 6.39 µM
- TGI (OVCAR-8 ovarian): > 100 µM
- GI50 (PC-3 prostate): 15.3 µM
- TGI (PC-3 prostate): > 100 µM
- GI50 (RPMI-8226 leukemia): 6.08 µM
- TGI (RPMI-8226 leukemia): 46.1 µM
- GI50 (RXF 393 renal): 9.39 µM
- TGI (RXF 393 renal): 50.5 µM
- GI50 (SF-268 CNS): 4.32 µM
- TGI (SF-268 CNS): > 100 µM
- GI50 (SF-295 CNS): 6.92 µM
- TGI (SF-295 CNS): 80.8 µM
- GI50 (SF-539 CNS): 3.97 µM
- TGI (SF-539 CNS): > 100 µM
- GI50 (SK-MEL-2 melanoma): 14.7 µM
- TGI (SK-MEL-2 melanoma): 63.9 µM
- GI50 (SK-MEL-28 melanoma): 6.1 µM
- TGI (SK-MEL-28 melanoma): > 100 µM
- GI50 (SK-MEL-5 melanoma): 4.76 µM
- TGI (SK-MEL-5 melanoma): 16.9 µM
- GI50 (SK-OV-3 ovarian): 25.5 µM
- TGI (SK-OV-3 ovarian): 88.6 µM
- GI50 (SN12C renal): 6.98 µM
- TGI (SN12C renal): > 100 µM
- GI50 (SNB-19 CNS): 15.7 µM
- TGI (SNB-19 CNS): > 100 µM
- GI50 (SNB-75 CNS): 2.53 µM
- TGI (SNB-75 CNS): 42.8 µM
- GI50 (SR leukemia): 3.68 µM
- TGI (SR leukemia): > 100 µM
- GI50 (SW-620 colon): 33.2 µM
- TGI (SW-620 colon): > 100 µM
- GI50 (T-47D breast): 18.5 µM
- TGI (T-47D breast): > 100 µM
- GI50 (TK-10 renal): 29.9 µM
- TGI (TK-10 renal): > 100 µM
- GI50 (U251 CNS): 4.08 µM
- TGI (U251 CNS): > 100 µM
- GI50 (UACC-257 melanoma): 3.4 µM
- TGI (UACC-257 melanoma): 31.4 µM
- GI50 (UACC-62 melanoma): 5.75 µM
- TGI (UACC-62 melanoma): > 100 µM
- GI50 (UO-31 renal): 23.9 µM
- TGI (UO-31 renal): > 100 µM
